Test results: patent publication US9326513B2, “Fungicidal compositions” (Syngenta Participations AG, priority 2011, dated 2016)
Read-outs that look alike come from different tables or passages of the source. Blank lines part the entries; values can stand above or below the molecule they belong to.

Legend:
[1] = system: Septoria tritici; test: Septoria tritici (leaf blotch), YBG microtiter plate, photometric growth inhibition after 6 days; format: cell-based; settings: Zymoseptoria tritici, 144 h
Source text: In the following Tables ‘Activity (%)’ means the assessed experimental activity (% disease control in this test when compared to untreated control leaf disks under the same conditions, which show extensive disease development) and “P” is the expected value calculated (expected) activity according to the COLBY formula (see above). The column headed ‘S?’ indicates whether or not synergy was observed, with ‘y’ meaning that synergy was observed.
Septoria tritici (Leaf Blotch):
After placing solutions of the test compounds (containing 0.2% DMSO) into a microtiter plate (96-well format), an equal amount of the nutrient broth (YBG) was added to each of the well. Finally the fungal spore solution was added. The test plates were incubated at 20° C. The inhibition of growth was determined photometrically after 6 days and the activity calculated in relation to untreated control.

[2] = system: Botrytis cinerea; test: Botrytis cinerea (gray mould), PDB microtiter plate, visual after 72 hrs; format: cell-based; settings: Botrytis cinerea, alone
[3] = system: Septoria tritici; test: Septoria tritici (leaf blotch), PDB microtiter plate, visual after 72 hrs; format: cell-based; settings: single compound
[4] = system: Monographella nivalis (syn. Microdochium nivale, Fusarium nivale); test: Monographella nivalis (snow mould, foot rot of cereals), PDB microtiter plate, visual after 72 hrs; format: cell-based; settings: Monographella nivalis, applied alone
[5] = system: Septoria tritici; test: Septoria tritici on wheat, preventive treatment; format: in vivo; settings: solo, wheat Riband, 1 day preventive, 18 days after application
[6] = system: Puccinia recondita f. sp. tritici; test: Puccinia recondita f. sp. tritici / wheat / leaf disc preventative (brown rust); format: in vivo; settings: foliar, compared to untreated control leaf disks, read-out: disease control
Source text: Puccinia recondita f. sp. tritici/Wheat/Leaf Disc Preventative (Brown Rust) Wheat leaf segments cv. Kanzler were placed on agar in multiwell plates (24-well format) and sprayed with the formulated test compound diluted in water. The leaf disks were inoculated with a spore suspension of the fungus 1 day after application.

[7] = system: Mycosphaerella arachidis (y. Cercospora arachidicola); test: Mycosphaerella arachidis (brown leaf spot of groundnut), PDB microtiter plate, visual after 5-6 days; format: cell-based; settings: Mycosphaerella arachidis, single compound

Structure (SMILES): CCCN(CCOc1c(Cl)cc(Cl)cc1Cl)C(=O)n1ccnc1 [Prochloraz]
inhibition of growth at 0.015625 ppm ([1]; read-out: Activity): 48%
inhibition of growth at 0.03125 ppm ([1]; read-out: Activity): 80%

Structure (SMILES): CC(C)(C)C(O)(CCc1ccc(Cl)cc1)Cn1cncn1 (stereo not shown) [Tebuconazole]
inhibition of growth at 1.25 ppm ([1]; solo, rate 1.25 ppm): 0%
inhibition of growth at 2.5 ppm ([1]; solo, rate 2.5 ppm): 47%
inhibition of growth at 5 ppm ([1]; solo, rate 5 ppm): 73%

Structure (SMILES): Fc1ccc([C@]2(Cn3cncn3)O[C@H]2c2ccccc2Cl)cc1 (racemic) [Epoxiconazole]
inhibition of growth at 0.15625 ppm ([1]; solo, rate 0.15625 ppm, read-out: Activity): 65%
inhibition of growth at 0.625 ppm ([1]; solo, rate 0.625 ppm): 71%

Structure (SMILES): CC1(C)CCC(Cc2ccc(Cl)cc2)C1(O)Cn1cncn1 (stereo not shown) [Metconazole]
inhibition at 0.015625 ppm ([2]; rate 0.015625 ppm): 0%
inhibition at 0.03125 ppm ([2]; rate 0.03125 ppm, read-out: Activity (%)): 0%
inhibition at 0.03125 ppm ([3]; Zymoseptoria tritici, 0.03125 ppm): 0%
inhibition at 0.0625 ppm ([3]; Zymoseptoria tritici, 0.0625 ppm): 70%
Activity (%) ([3]; 0.0625 ppm): 50%
inhibition at 0.0625 ppm ([4]; 0.0625 ppm): 0%
inhibition at 0.125 ppm ([4]; 0.125 ppm): 0%
inhibition at 0.25 ppm ([4]; 0.25 ppm): 0%
inhibition at 0.5 ppm ([4]; 0.5 ppm): 0%
inhibition at 1 ppm ([4]; 1 ppm): 20%
inhibition at 0.015625 ppm ([4]; rate 0.015625 ppm): 0%
inhibition at 0.03125 ppm ([4]; rate 0.03125 ppm): 0%
inhibition at 0.0625 ppm ([4]; rate 0.0625 ppm): 0%
inhibition at 0.125 ppm ([4]; rate 0.125 ppm): 0%
inhibition at 0.25 ppm ([4]; rate 0.25 ppm): 0%
inhibition at 0.5 ppm ([4]; rate 0.5 ppm): 0%
inhibition at 1 ppm ([4]; rate 1 ppm): 20%

Structure (SMILES): OC(c1cccnc1)c1c(-c2ccc(Cl)cc2F)noc1-c1ccc(F)cc1F (stereo not shown) [(VII), [3-(4-chloro-2-fluoro-phenyl)-5-(2,4-difluoro-phenyl)-isoxazol-4-yl]-pyridin-3-yl-methanol, reference compound]
Activity ([5]; 3 g a.i./ha): 0%
Activity ([5]; 9 g a.i./ha): 20%
Activity ([5]; 27 g a.i./ha): 96%

Structure (SMILES): CC1COC(Cn2cncn2)(c2ccc(Oc3ccc(Cl)cc3)cc2Cl)O1 (stereo not shown) [Difenoconazole]
Activity ([5]; 0.33 g a.i./ha): 0%
Activity ([5]; 1 g a.i./ha): 0%
Activity ([5]; 3 g a.i./ha): 0%
Activity ([5]; 9 g a.i./ha): 3%
Activity ([5]; 27 g a.i./ha): 5%
inhibition of growth at 0.15625 ppm ([1]; read-out: Activity): 48%

melting point: 59 to 62 °C
Structure (SMILES): CCN(C)/C=N/c1cc(Br)c(OC(C)c2ccccc2-c2ccccc2)nc1C (stereo not shown) [Q.295]
pest or weed control at 200 ppm [6]: ≥ 50%

Structure (SMILES): Cc1cc(C2CC2)nc(Nc2ccccc2)n1 [Cyprodinil]
inhibition at 0.00078125 ppm ([7]; 0.00078125 ppm): 0%
inhibition at 0.00125 ppm ([7]; 0.00125 ppm): 0%
inhibition at 0.0015625 ppm ([7]; 0.0015625 ppm): 0%
inhibition at 0.003125 ppm ([7]; 0.003125 ppm): 0%
inhibition at 0.025 ppm ([7]; 0.025 ppm): 0%
inhibition at 0.05 ppm ([7]; 0.05 ppm): 0%
inhibition at 0.0625 ppm ([7]; 0.0625 ppm, read-out: Activity (%)): 0%
inhibition at 0.1 ppm ([7]; 0.1 ppm): 0%
inhibition at 0.2 ppm ([7]; 0.2 ppm): 0%
inhibition at 0.0015625 ppm ([4]; 0.0015625 ppm): 0%
inhibition at 0.003125 ppm ([4]; 0.003125 ppm): 20%
